Measurements taken from patent US20120015032A1, “COMBINATION PREPARATION COMPRISING INHIBITOR OF HMG-COA REDUCTASE AND ASPIRIN AND METHOD FOR MANUFACTURING THE SAME” (HANALL PHARMACEUTICAL COMPANY, LTD., priority 2007, published 2012).

Experiments:
Format in all cases: in vivo, rat
[1] = tested on: rats; assay: Test of comparison of gastric mucosal injury in rats (index of gastric mucosal bleeding); conditions: Table 16
[2] = tested on: SD rats; assay: Test of antiplatelet aggregation effect (bleeding time) in rats
Experimental: (§1) Animal tests supporting the effects of the present invention were carried out as described in Table 10 below. [table]

[3] = tested on: SHR rats; assay: Test of antihypertensive effect in rats; conditions: light, p.o.
Experimental: as §1

[4] = Day 0, simvastatin 5 mg/kg alone
[5] = Day 5, simvastatin 5 mg/kg alone

SMILES	occurrence of gastrointestinal disturbance [1]	platelet aggregation inhibitory effect ([2]; rats, bleeding time, summary of Table 12)	Diastolic blood pressure (DBP) [3, 4]	Mean blood pressure (MBP) [3, 4]	Systolic blood pressure (SBP) [3, 4]	Diastolic blood pressure (DBP) [3, 5]	Mean blood pressure (MBP) [3, 5]	Systolic blood pressure (SBP) [3, 5]	Bleeding time ([2]; SD rats, simvastatin alone, light conditions, p.o., 2 hrs after administration) [s]
CC(=O)Oc1ccccc1C(=O)O [aspirin]	increased in proportion to an increase in the dose of aspirin	increased in proportion to the dose of aspirin							
CCC(C)(C)C(=O)O[C@H]1C[C@@H](C)C=C2C=C[C@H](C)[C@H](CC[C@@H]3C[C@@H](O)CC(=O)O3)[C@H]21 [simvastatin]			124.3 ± 15.5	139.0 ± 12.4	171.0 ± 8.7	125.1 ± 17.1	131.3 ± 12.6	173.9 ± 9.2	782 ± 429
